According to US11519911B2, “ALX receptor ligands define a biochemical endotype for inflammation-based diseases” (THE BRIGHAM AND WOMEN'S HOSPITAL, INC., priority 2017, dated 2022):
Entries after “also recorded” stand apart in the source; their conditions may differ.

Tests used:
ALX/FPR2 receptors (ALX) [1] = target: T1, ALX/FPR2 receptors (ALX) (Homo sapiens, UniProt P25090); conditions: high affinity cognate receptors; reference (16); cited from earlier work
T1 sequence (P25090 1-351): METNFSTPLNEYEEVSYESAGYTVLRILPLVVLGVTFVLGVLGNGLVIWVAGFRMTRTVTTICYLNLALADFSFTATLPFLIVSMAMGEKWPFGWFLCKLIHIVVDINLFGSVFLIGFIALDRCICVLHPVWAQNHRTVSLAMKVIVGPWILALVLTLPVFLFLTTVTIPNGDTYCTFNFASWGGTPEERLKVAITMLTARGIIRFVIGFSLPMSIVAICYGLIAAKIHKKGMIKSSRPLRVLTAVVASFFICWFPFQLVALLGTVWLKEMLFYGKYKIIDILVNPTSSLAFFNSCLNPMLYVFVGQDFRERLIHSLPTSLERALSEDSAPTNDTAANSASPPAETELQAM

ALX/FPR2 receptors (ALX) [2] = target: T1, ALX/FPR2 receptors (ALX); assay: ALX-dependent in vitro reporter assay: IL-8 production by A549 cells expressing human ALX receptor (ELISA); type: cell-based; parameters: expressed in transfected cells; host or cells: A549 human lung epithelial cells, stably transfected
Protocol: FIG. 6 A-D. SAA and 15-epi-LXA4 signaling via ALX receptors regulates production of the neutrophil chemoattractant IL-8 A549 human epithelial cells expressing human ALX receptors (A549^hALX) were exposed to BALF from HD, NSA, or SA subjects (24 h, 37° C., 5% CO2) and IL-8 levels were measured in the cell-free supernatant by ELISA (see Methods). (A) Mean levels of LXA4, 15-epi-LXA4 and SAA in BALF from n=15 subjects used for A549^hALX cell incubations are shown in stacked bar graphs and the relative proportions are noted in pie charts. (B) IL-8 production by A549^hALX cells was measured after incubation with saline control or SAA (2.5 ng/ml or 10 ng/ml) for 24 hours. (C) IL-8 production by A549^hALX cells was measured after 24 hours of exposure to BALF from HD (n=3), NSA (n=6) or SA (n=5) and is expressed as an increase relative to saline controls. Incubations with BALF without an increase in IL-8 production relative to saline control were assigned a value of zero. (D) A549^hALX epithelial cells were exposed to BALF from subjects with endogenous levels that were LXA4^highSAA^low (n=5) or LXA4^lowSAA^high (n=6) followed by exposure to exogenous 15-epi-LXA4 (100 nM). % Inhibition of IL-8 production after 15-epi-LXA4 exposure was calculated. *p<0.05, ****p<0.001 by (B) one-way ANOVA (C) Kruskal-Wallis test and (D) Mann-Whitney test. ALX, airway lipoxin A4 receptor; LXA4, lipoxin A4; 15-epi-LXA4, 15-epimer lipoxin A4; SAA, serum amyloid A; HD, healthy donors; NSA, non-severe asthma; SA, severe asthma; IL-8, interleukin-8; BALF, bronchoalveolar lavage fluid.
To determine the functional relationship for these ALX receptor ligands, we next turned to an ALX-dependent in vitro reporter assay that we have previously qualified in chronic obstructive pulmonary disease (18). A549 lung epithelial cells were stably transfected to express the human ALX/FPR2 receptor (hALX). […]
A549 transfected to stably express the human ALX receptor were used (as in (18)). […] IL-8 levels in the supernatants were measured by ELISA (R&D). […]

[3] = BALF ALX ligand levels after a single dose of intramuscular triamcinolone in asthma subjects; type: in vivo, human; conditions: measured 3 to 6 weeks after, SA or NSA subjects
Protocol: Subjects 13 years of age and older with asthma and healthy control subjects were recruited between November 2012 and February 2015 by seven geographically dispersed, research centers in the USA. European Respiratory Society/American Thoracic Society guidelines were used to categorize subjects as SA or NSA (48). Control subjects were individuals who reported general health and were non-smokers with no history of lung disease, atopic disease or allergic rhinitis. BAL was performed with three 50 mL aliquots of warm saline, and BALF were recovered by hand suction. Subjects received intramuscular triamcinolone (1 mg/kg up to a maximum dose of 40 mg) and some subjects agreed to undergo a second bronchoscopy 3 to 6 weeks later and BAL samples were collected in the same manner. BAL cells were enumerated and differential leukocyte counts determined. Cell-free BALF supernatant was divided into several aliquots. One aliquot of BALF (1 ml) was directly mixed with iced methanol (2 ml, for 1:2, vol/vol) before storing at −80° C. The other aliquots were directly stored at −80° C. […]
LXA4 and 15-epi-LXA4 levels in the BALF were measured by ELISA (Neogen, Lexington, Ky.). […] SAA and ANXA1 levels were measured by ELISA in aliquots of BALF stored in the absence of methanol (SAA: Abazyme, Needham, Mass.; ANXA1: Cloud-Clone, Houston, Tex.). […]

## 15-epimer lipoxin A4 [15-epi-LXA4]
ALX/FPR2 receptors (ALX) [1]
  Kd: ~1 nM
ALX/FPR2 receptors (ALX) [2]; exogenous 15-epi-LXA4 100 nM, cells exposed to BALF
  Inhibition of IL-8 production by A549^hALX cells conditioned with BALF: inhibited A549^hALX cell IL-8 production
ALX/FPR2 receptors (ALX) [2]; exogenous 15-epi-LXA4 100 nM, compared with LXA4^highSAA^low BALF
  Inhibition of IL-8 production by A549^hALX cells conditioned with BALF from LXA4^lowSAA^high subjects: maximal inhibition of IL-8 production

## CCCCC[C@H](O)/C=C/C=C\C=C\C=C\[C@@H](O)[C@@H](O)CCCC(=O)O [LXA4, Lipoxin A4]
ALX/FPR2 receptors (ALX) [1]
  Kd: ~1 nM

## C[C@]12C=CC(=O)C=C1CC[C@H]1[C@@H]3C[C@@H](O)[C@](O)(C(=O)CO)[C@@]3(C)C[C@H](O)[C@@]12F [triamcinolone]
[3]
  Change in BALF levels of LXA4, 15-epi LXA4 and SAA: did not result in discernible changes; also recorded: not significantly altered

B1: SAA: acute phase protein, pro-inflammatory ALX peptide ligand; recombinant human SAA (Peprotech) (protein, UniProt P0DJI8 19-122, looked up)
Serum amyloid A-1 protein: RSFFSFLGEAFDGARDMWRAYSDMREANYIGSDKYFHARGNYDAAKRGPGGAWAAEVITDARENIQRFFGHGAEDSLADQAANEWGRSGKDPNHFRPAGLPEKY
ALX/FPR2 receptors (ALX) [2]; recombinant human SAA 0-10 ng/ml, 24 h, vs saline control
  IL-8 production by A549^hALX cells: concentration-dependent (0-10 ng/ml) increase in IL-8 production
